Laboratory results published in PubChem BioAssay (NCI).
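These data come from cells grown in 96-well plates and exposed to compound for 48 hours at five concentrations. Definition used: TGI = concentration required for complete inhibition of growth.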

Experiments:
Assay in all cases: NCI tumour cell line growth inhibition, 48 h
[1] = test system: 786-0 renal
[2] = test system: A498 renal
[3] = test system: A549 NSCLC
[4] = test system: ACHN renal
[5] = test system: BT-549 breast
[6] = test system: CAKI-1 renal
[7] = test system: CCRF-CEM leukemia
[8] = test system: COLO 205 colon
[9] = test system: DU-145 prostate
[10] = test system: EKVX NSCLC
[11] = test system: HCT-116 colon
[12] = test system: HCT-15 colon
[13] = test system: HL-60(TB) leukemia
[14] = test system: HOP-62 NSCLC
[15] = test system: HOP-92 NSCLC
[16] = test system: HS 578T breast
[17] = test system: HT29 colon
[18] = test system: IGROV1 ovarian
[19] = test system: K-562 leukemia
[20] = test system: KM12 colon
[21] = test system: LOX IMVI melanoma
[22] = test system: M14 melanoma
[23] = test system: MALME-3M melanoma
[24] = test system: MCF7 breast
[25] = test system: MDA-MB-231 breast
[26] = test system: MDA-MB-435
[27] = test system: MDA-N
[28] = test system: MOLT-4 leukemia
[29] = test system: NCI-H226 lung
[30] = test system: NCI-H23 lung
[31] = test system: NCI-H460 lung
[32] = test system: NCI-H522 lung
[33] = test system: NCI/ADR-RES ovarian
[34] = test system: OVCAR-3 ovarian
[35] = test system: OVCAR-4 ovarian
[36] = test system: OVCAR-5 ovarian
[37] = test system: OVCAR-8 ovarian
[38] = test system: PC-3 prostate
[39] = test system: RPMI-8226 leukemia
[40] = test system: RXF 393 renal
[41] = test system: SF-268 CNS
[42] = test system: SF-295 CNS
[43] = test system: SF-539 CNS
[44] = test system: SK-MEL-2 melanoma
[45] = test system: SK-MEL-28 melanoma
[46] = test system: SK-MEL-5 melanoma
[47] = test system: SK-OV-3 ovarian
[48] = test system: SN12C renal
[49] = test system: SNB-19 CNS
[50] = test system: SNB-75 CNS
[51] = test system: SR leukemia
[52] = test system: SW-620 colon
[53] = test system: T-47D breast
[54] = test system: TK-10 renal
[55] = test system: U251 CNS
[56] = test system: UACC-257 melanoma
[57] = test system: UACC-62 melanoma
[58] = test system: UO-31 renal
[59] = test system: HCC-2998 colon

In the case of `CC1=CP(=O)(c2c(C(C)C)cc(C(C)C)cc2C(C)C)CCC1Cl` (configuration not stated), the TGI [1] is reported as 36.7 µM, the TGI [2] is reported as 30.4 µM and the TGI [3] is reported as 32.7 µM. The TGI [4] was 31.5 µM, the TGI [5] was 33.4 µM and the TGI [6] was 39.4 µM. For the same compound, the TGI [7] was 65.4 µM, the TGI [8] was 29.8 µM and the TGI [9] was 37.1 µM. For the same compound, the TGI [10] was 32.6 µM, the TGI [11] was 38.4 µM and the TGI [12] was 39.8 µM. It also gave a TGI [13] of 42.8 µM, a TGI [14] of 33.9 µM and a TGI [15] of 31 µM. For the same compound, the TGI [16] was over 100 µM, the TGI [17] was 41.8 µM and the TGI [18] was 40.9 µM. The TGI [19] was 35.6 µM, the TGI [20] was 40.2 µM and the TGI [21] was 47.2 µM. The TGI [22] was 29.8 µM, the TGI [23] was 30.4 µM and the TGI [24] was 35.5 µM. The TGI [25] was 30.7 µM, the TGI [26] was 37.6 µM and the TGI [27] was 46.7 µM. It also gave a TGI [28] of 49.6 µM, a TGI [29] of 35.1 µM and a TGI [30] of 39.4 µM. The TGI [31] was 35.3 µM, the TGI [32] was 33.6 µM and the TGI [33] was 40.2 µM. For the same compound, the TGI [34] was 23.4 µM, the TGI [35] was 48.5 µM and the TGI [36] was 32.5 µM. It also gave a TGI [37] of 52.9 µM, a TGI [38] of 28 µM and a TGI [39] of 40.9 µM. The TGI [40] was 31.5 µM, the TGI [41] was 35.4 µM and the TGI [42] was 27.4 µM. It also gave a TGI [43] of 32.9 µM, a TGI [44] of 31.4 µM and a TGI [45] of 35.1 µM. It also gave a TGI [46] of 31.7 µM, a TGI [47] of 36.3 µM and a TGI [48] of 34.7 µM. It also gave a TGI [49] of 30.3 µM, a TGI [50] of 28.6 µM and a TGI [51] of 23 µM. For the same compound, the TGI [52] was 69.9 µM, the TGI [53] was 31.9 µM and the TGI [54] was 30.7 µM. It also gave a TGI [55] of 32.3 µM, a TGI [56] of 24.9 µM and a TGI [57] of 26.1 µM. For the same compound, the TGI [58] was 29.2 µM.
`Cc1c2c(n(CC(c3ccccc3)c3ccccc3)c1C)NN=C(C#N)S2(=O)=O` gave a TGI [1] of over 100 µM, a TGI [2] of over 100 µM and a TGI [3] of over 100 µM. The TGI [4] was over 100 µM, the TGI [5] was over 100 µM and the TGI [6] was over 100 µM. For the same compound, the TGI [8] was over 100 µM, the TGI [9] was over 100 µM and the TGI [10] was over 100 µM. For the same compound, the TGI [59] was over 100 µM, the TGI [11] was over 100 µM and the TGI [12] was over 100 µM. For the same compound, the TGI [14] was over 100 µM, the TGI [15] was over 100 µM and the TGI [16] was over 100 µM. The TGI [17] was over 100 µM, the TGI [18] was over 100 µM and the TGI [20] was over 100 µM. For the same compound, the TGI [21] was over 100 µM, the TGI [22] was over 100 µM and the TGI [24] was over 100 µM. For the same compound, the TGI [25] was over 100 µM, the TGI [26] was over 100 µM and the TGI [27] was over 100 µM. For the same compound, the TGI [28] was over 100 µM, the TGI [29] was over 100 µM and the TGI [30] was over 100 µM. It also gave a TGI [31] of over 100 µM, a TGI [32] of over 100 µM and a TGI [33] of over 100 µM. It also gave a TGI [34] of over 100 µM, a TGI [35] of over 100 µM and a TGI [36] of over 100 µM. It also gave a TGI [37] of over 100 µM, a TGI [38] of over 100 µM and a TGI [39] of over 100 µM. The TGI [41] was over 100 µM, the TGI [42] was over 100 µM and the TGI [43] was over 100 µM. For the same compound, the TGI [44] was over 100 µM, the TGI [45] was over 100 µM and the TGI [46] was over 100 µM. The TGI [47] was over 100 µM, the TGI [48] was over 100 µM and the TGI [49] was over 100 µM. It also gave a TGI [50] of over 100 µM, a TGI [51] of over 100 µM and a TGI [52] of over 100 µM. It also gave a TGI [53] of over 100 µM, a TGI [54] of over 100 µM and a TGI [55] of over 100 µM. For the same compound, the TGI [56] was over 100 µM, the TGI [57] was over 100 µM and the TGI [58] was over 100 µM.
